Here are results for 6 substances from PMC5701947, “β1-Adrenergic Receptor Contains Multiple IA^k and IE^k Binding Epitopes That Induce T Cell Responses with Varying Degrees of Autoimmune Myocarditis in A/J Mice” (Frontiers in Immunology, 2017).

Assay [1] concerns CD4 T cells. The assay can be described thus: IE^k dextramer staining of CD4 T cells. Type of assay: cell-based, A/J mice. The settings on record: IE^k dextramers; cells from β1ARAc 181–200-immunized mice; P = 0.028 vs control dextramer; Figure 4B. The text has this: (§1) To enumerate the frequencies of antigen-specific CD4 T cells, we created IA^k dextramers for β1AR 171-190 and β1AR 211–230, and IE^k dextramers for β1AR 181–200. To create IA^k dextramers, the nucleotide sequence for β1AR 171–190 ([…]) and β1AR 211–230 ([…]) was inserted into the IA^k-β construct that we had described previously ([35], [39]), whereas IA^k/RNase 43–56 (control) dextramers were readily available in our laboratory ([30], [35], [40]). The soluble, IA^k/β1AR 171–190 and IA^k/β1AR 211–230 molecules were expressed in sf9 cells using baculovirus expression system. After purifying through anti-IA^k-affinity column, the IA^k/β1AR 171–190 and IA^k/β1AR 211–230 monomers were biotinylated and dextramers were derived using streptavidin (SA)/fluorophore-conjugated dextran molecules as described previously ([35], [39]). […]
(§2) To stain with dextramers, lymphocytes obtained from lymph nodes and spleens from immunized animals were stimulated with the immunizing peptides namely, β1ARAc 171–190, β1ARAc 181–200, and β1ARAc 211–230 (20 µg/ml) for 2 days and growth medium containing interleukin (IL)-2 (IL-2 medium) was then added. […] After washing, and acquisition by flow cytometry, percent dextramer^+ (dext^+) cells were analyzed within the live cells (7-AAD^−) using Flow Jo software ([34], [35], [39]).

In another assay the test system is Balb/c mice. Particulars: cited from earlier work. The text has this: It has been proposed that acetylated peptides can be prevented from intracellular degradation leading to their stable binding to MHC molecules ([29], [50]). Thus, we decided to use the acetylated peptides, and focused only the peptides that were located within the stretch of β1AR 171–230 (Table 1).

The subject of the next assay is A/J mice (hearts). Nature of the assay: Induction of myocarditis by active immunization with peptides (histology). It is filed as in vivo. The settings on record: for Myocarditis incidence / Myocarditis incidence (animals with disease/total) / Inflammatory foci: individual non-acetylated peptide, 100 µg per animal; for Myocarditis incidence / Myocarditis incidence (animals with disease/total): CFA/PT, days 0 and 7, day 21; for Inflammatory foci: mean ± SEM of myocarditic animals.

For assay [2], the system named is lymph node cell (LNC) cultures. The assay can be described thus: Cytokine secretion (bead array). It is filed as cell-based, A/J mice. The settings on record: LNC supernatants, 50–100 µg/ml, day 3; P = 0.06. The protocol: Supernatants were obtained from lymph node cell (LNC) cultures prepared from immunized animals that were stimulated with or without acetylated or non-acetylated, β1AR 171–190, β1AR 181–200, and β1AR 211–230 and RNase 43–56/HEL 46–61 (controls) (50–100 µg/ml) on day 3 poststimulations. Cytokine analysis was performed using beads conjugated with capture and detection Abs with the standard curves being derived from serial dilutions of mouse cytokine standard mixtures, consisting of IL-2, interferon (IFN)-γ, IL-4, IL-6, IL-10, IL-17A, and tumor necrosis factor (TNF)-α as recommended by the manufacturer’s guidelines (BD Biosciences). Briefly, capture bead/cytokine antibody conjugates were first prepared, and the mixtures were added to a tube containing diluted standards or test samples, followed by addition of detection antibodies. After acquiring by flow cytometry, FCAP Array Software was used to analyze the data (BD Biosciences) ([26], [30]).

For assay [3], the system named is T cells (lymph node cells/splenocytes from immunized animals). Nature of the assay: T cell proliferation assay ([3H]-thymidine). The settings on record: for T cell responses: fold vs medium control; for T cell responses (in words): proliferation, 0–100 µg/ml, 2 days + 16 h [3H]-thymidine, cpm. Type of assay: cell-based, A/J mice. The method in brief: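 Lymph node cells and splenocytes from immunized animals, or magnetically enriched CD4/CD8 T cells (~95% pure) plus peptide-loaded irradiated syngeneic naive splenocytes (1:1), stimulated at ~5 × 10^6 cells/ml with immunizing peptide (0–100 µg/ml) for 2 days. Pulsed with [3H]-thymidine for 16 h; proliferation read as cpm.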

The test system of another assay is antigen-primed T cells. The assay can be described thus: Cytokine-producing cells after Th1/Th17 polarization (flow cytometry). Type of assay: cell-based, A/J mice. The settings on record: Figure S4. How it is done: Lymph node cells obtained from animals immunized with individual peptides, β1ARAc 171–190, β1ARAc 181–200, or β1ARAc 211–230 on day 21 postimmunizations were stimulated with the corresponding immunizing peptides (20 µg/ml) for 2 days followed by resting in IL-2 medium. In a separate set of experiments, animals were immunized with a mixture of β1ARAc 171–190, 181–200, and 211–230 peptides and their lymphocytes were stimulated with the immunizing peptides individually (50 µg/ml) for 2 days and then IL-2 medium was added. On day 3, one of the two aliquots of cells were exposed to a mixture of Th1- and Th17-polarizing conditions by adding recombinant mouse IL-12 (20 ng/ml), IL-1β (30 ng/ml), IL-6 (30 ng/ml), IL-23 (50 ng/ml) (all cytokines were procured from BioLegend, San Diego, CA, USA), and human transforming growth factor-β1 (10 ng/ml; eBioscience, San Diego, CA, USA) as reported previously ([41]–[44]), and the other was maintained in IL-2 medium alone. Flow cytometrically, we analyzed the percentages of cytokine-producing cells on days 3 and 6 following polarization as we have described previously ([28], [31], [40]). Viable cells harvested on days 8–10 were administered through i.p., or retro-orbital sinus (4–14 × 10^6 cells/animal) into naive mice primed with lipopolysaccharide (LPS, 25 µg/mouse i.p., day −4 and day 0). […]
(A flow cytometer gives signals particle by particle.)

Assay [4] concerns CD4 T cells. The assay can be described thus: IA^k dextramer staining of CD4 T cells. Type of assay: cell-based, A/J mice. The settings on record: IA^k dextramers.
From the text: as §1, §2

The subject of assay [5] is serum antibodies (Igs and isotypes) of immunized mice. The assay can be described thus: ELISA, antibodies that react with β1ARAc peptides. Particulars: serum 1:100, day 21, OD 405 nm; five animals per group. It is filed as in vivo, A/J mice. The protocol: ELISA was used to measure antibodies that react with β1ARAc peptides in the serum samples collected from immunized animals at termination on day 21 as described previously ([26]). […] After washing/blocking, serum samples (1:100) were added in duplicates, and the plates were incubated at 37°C for 1 h followed by addition of HRP-labeled goat anti-mouse immunoglobulins (Igs), IgG1, IgG2a, IgG2b, IgG3, IgM, IgA, and IgE (Southern Biotech, Birmingham, AL, USA) as secondary antibodies. Two hours after incubation at RT, 1 × tetramethylbenzidine solution was added as a substrate (eBioscience), and reactions were stopped using 1 M phosphoric acid. The plates were read at 405 nm using an automated ELISA reader (BioTek instruments, Winooski, VT, USA) to measure OD values ([26], [46]).
On the technique in general: An ELISA detects its analyte on a solid surface through an enzyme-linked reagent.

The next assay deals with CD8 T cells. The assay can be described thus: T cell proliferation assay, enriched CD8 T cells. It is filed as cell-based, A/J mice. The settings on record: CD8 T cells ~95% purity from immunized mice; peptide-loaded irradiated splenocytes 1:1; Figure S3B. How it is done:
(§3) At termination, lymph nodes (maxillary, mandibular, axillary, inguinal, and popliteal) and spleens were harvested from immunized animals to prepare single cell suspensions. Similarly, splenocytes were prepared from naive animals. After lysing the erythrocytes and washing, cell pellets were suspended in RPMI medium containing 10% fetal bovine serum, 1 mM sodium pyruvate, 4 mM L-glutamine, 1 × each of non-essential amino acids and vitamin mixture, and 100 U/ml penicillin–streptomycin (Lonza, Walkersville, MD, USA; hereafter called growth medium). In some experiments, CD4 T cells and CD8 T cells were enriched to a purity of ~95% by negative selection based on magnetic separation using IMAG (BD Biosciences, San Jose, CA, USA) ([31]). To stimulate CD4 and CD8 T cells, syngeneic naive irradiated splenocytes loaded with peptides were used as antigen-presenting cells at a ratio of 1:1. Cells were stimulated at a density of ~5 × 10^6 cells/ml in triplicates with or without the immunizing peptides (0–100 µg/ml) in growth medium. RNase 43–56 or HEL 46–61 were used as irrelevant controls. After 2 days, cells were pulsed with tritiated ^3[H]-thymidine (1 μCi/well; MP Biomedicals, Santa Ana, CA, USA), and 16 h later, proliferative responses were measured as counts per minute (cpm) using a Wallac liquid scintillation counter (Perkin Elmer, Waltham, MA, USA) ([26], [28], [30]).

In assay [6] the test system is CD4 T cells. The assay can be described thus: T cell proliferation assay, enriched CD4 T cells. Type of assay: cell-based, A/J mice. The settings on record: CD4 T cells ~95% purity from immunized mice; peptide-loaded irradiated splenocytes 1:1; Figure S3B. How it is done: as §3
[7] abbreviates: 10 μg/ml, animals immunized with pool IV.
The mark [8] stands for this setting: 100 μg/ml, animals immunized with pool IV.

No end group written: not given here.

For the substance FAGLKKANERADLIAYLKQATK [MCC 82–103], the “percent dext^+ CD4^high T cells” value with CD4 T cells [1] is 0.33 ± 0.03%.

Turning to “Myhc 614–643: cardiac myosin heavy chain-α 614–643 (Ac-SLKLMATLFSTYASADTGDSGKGKGGKKKG; UniProt Q02566 614-643, looked up, fragment)”, in the assay with Balb/c mice, the “Myocarditis by N-terminally acetylated peptide (in words)” value is recorded as “can induce significant myocarditis”.

With “TRARARALVCTVWAISALVS [β1AR 171-190, 20-mer of mouse β1AR peptide library]”, in the assay on A/J mice (hearts), the Myocarditis incidence was found to be 0%, the “Myocarditis incidence (animals with disease/total)” value is reported as 0/5 and the Inflammatory foci is on record as 0. In assay [2], the “IL-17A production (in words)” value is recorded as “tended to be elevated”. Further, in assay [3] (setting [7]), the T cell responses was found to be 2.68 fold. For the same substance, the T cell responses in [3] (setting [8]) is listed as 5.13 fold.

For the substance “TVWAISALVSFLPILMHWWR [β1AR 181-200, 20-mer of mouse β1AR peptide library]”, the “Disease severity (in words)” value in the assay on A/J mice (hearts) (individual immunization, non-acetylated peptides) was “mild disease”. Further, in the assay with A/J mice (hearts), the Myocarditis incidence worked out at 20%, the “Myocarditis incidence (animals with disease/total)” value is given as 1/5 and the Inflammatory foci turned out to be 2. The “Th1 cytokine-producing cells (in words)” value in the assay with antigen-primed T cells is “significantly enhanced”. For the same substance, the “IL-17A production (in words)” value in assay [2] is “tended to be elevated”. The T cell responses in assay [3] (setting [7]) amounted to 1.70 fold. The substance also registered a T cell responses in assay [3] (setting [8]) of 2.30 fold.

Regarding “VNTFVHESLADVQA [RNase 43–56, bovine ribonuclease 43–56, irrelevant control, reference compound]”, the “percent dext^+ CD4^high T cells” value in the assay with CD4 T cells [4] (cells from β1ARAc 171–190-immunized mice, P = 0.049 vs control dextramer, Figure 4A) is reported as 0.52 ± 0.08%; in the assay on CD4 T cells [4] (cells from β1ARAc 211–230-immunized mice, P = 0.0003 vs control dextramer, Figure 4C), 0.12 ± 0.01%. The “Antibody response, total Igs (in words)” value in assay [5] is “lacking”. In addition, the T cell responses in [3] (10 μg/ml, animals immunized with pool I) stood at 1.05 fold; in assay [3] (10 μg/ml, animals immunized with pool II) it was 1.06 fold; in assay [3] (10 μg/ml, animals immunized with pool III) it was 1.04 fold; in assay [3] (setting [7]), 1.06 fold; in [3] (10 μg/ml, animals immunized with pool IX), 0.80 fold; in assay [3] (10 μg/ml, animals immunized with pool V), 1.06 fold. Besides, the T cell responses in [3] (10 μg/ml, animals immunized with pool VI) worked out at 0.73 fold; in [3] (10 μg/ml, animals immunized with pool VII), 1.16 fold; in assay [3] (10 μg/ml, animals immunized with pool VIII), 0.91 fold; in assay [3] (100 μg/ml, animals immunized with pool I) it was 1.42 fold; in [3] (100 μg/ml, animals immunized with pool II) it was 1.20 fold; in assay [3] (100 μg/ml, animals immunized with pool III) it was 1.14 fold. Besides, the T cell responses in assay [3] (setting [8]) is on record as 1.15 fold; in assay [3] (100 μg/ml, animals immunized with pool IX), 0.83 fold; in [3] (100 μg/ml, animals immunized with pool V), 1.14 fold; in [3] (100 μg/ml, animals immunized with pool VI), 1.10 fold; in assay [3] (100 μg/ml, animals immunized with pool VII) it was 1.16 fold; in assay [3] (100 μg/ml, animals immunized with pool VIII), 0.81 fold. In [3], the “T cell responses (in words)” value was “lacking”.

For YNTDGSTDYGILQINSR [HEL 46–61], in the assay on CD8 T cells, the “CD8 T cell proliferative response (in words)” value was “lacking”. In addition, the “CD4 T cell proliferative response (in words)” value with CD4 T cells [6] is “lacking”. The “T cell responses (in words)” value in assay [3] was “lacking”.
